Assay results taken from ChEMBL document CHEMBL1150908, “Mollenines A and B: new dioxomorpholines from the ascostromata of Eupenicillium molle” (1998).
The source made the active and inactive calls. No cut-off for these calls is given here.

Key:
[1] = tested on: Bacillus subtilis; assay: Antimicrobial activity against Bacillus subtilis at 200 ug/disk; format: functional, organism-based
[2] = Cytotoxicity against human NCI60 cells; format: functional

With `CC(C)=CC[C@@]12C[C@@H]3C(=O)O[C@H](CC(C)C)C(=O)N3[C@@H]1Nc1ccccc12` [MOLLENINE A] the Activity [1] was “Active” and the GI50 [2] was 31 µM.
